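Results reflect a 48-hour exposure of cells in 96-well plates to compound at five concentrations. The concentration for 50% growth inhibition is given as GI50. TGI marks complete inhibition of growth.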
How the values were obtained:
Experiment in all cases: NCI anticancer screen, dose series, 48 h
[1] = tested on: MDA-N
[2] = tested on: A498 renal
[3] = tested on: SW-620 colon
[4] = tested on: UACC-62 melanoma
[5] = tested on: ACHN renal
[6] = tested on: U251 CNS
[7] = tested on: NCI/ADR-RES ovarian
[8] = tested on: SF-539 CNS
[9] = tested on: A549 NSCLC
[10] = tested on: OVCAR-8 ovarian
[11] = tested on: HOP-62 NSCLC
[12] = tested on: PC-3 prostate
[13] = tested on: HT29 colon
[14] = tested on: UACC-257 melanoma
[15] = tested on: HCC-2998 colon
[16] = tested on: 786-0 renal
[17] = tested on: NCI-H23 lung
[18] = tested on: UO-31 renal
[19] = tested on: HL-60(TB) leukemia
[20] = tested on: SK-MEL-2 melanoma
[21] = tested on: SN12C renal
[22] = tested on: SK-MEL-28 melanoma
[23] = tested on: RPMI-8226 leukemia
[24] = tested on: SK-OV-3 ovarian
[25] = tested on: NCI-H460 lung
[26] = tested on: MOLT-4 leukemia
[27] = tested on: SNB-19 CNS
[28] = tested on: SK-MEL-5 melanoma
[29] = tested on: K-562 leukemia
[30] = tested on: OVCAR-4 ovarian
[31] = tested on: OVCAR-5 ovarian
[32] = tested on: SNB-75 CNS
[33] = tested on: NCI-H226 lung
[34] = tested on: IGROV1 ovarian
[35] = tested on: CAKI-1 renal
[36] = tested on: BT-549 breast
[37] = tested on: M14 melanoma
[38] = tested on: LOX IMVI melanoma
[39] = tested on: TK-10 renal
[40] = tested on: MDA-MB-231 breast
[41] = tested on: OVCAR-3 ovarian
[42] = tested on: COLO 205 colon
[43] = tested on: CCRF-CEM leukemia
[44] = tested on: SF-268 CNS
[45] = tested on: MCF7 breast
[46] = tested on: HOP-92 NSCLC
[47] = tested on: SR leukemia
[48] = tested on: T-47D breast
[49] = tested on: RXF 393 renal
[50] = tested on: HCT-15 colon
[51] = tested on: DU-145 prostate
[52] = tested on: EKVX NSCLC
[53] = tested on: MALME-3M melanoma
[54] = tested on: NCI-H522 lung
[55] = tested on: KM12 colon
[56] = tested on: MDA-MB-435
[57] = tested on: SF-295 CNS
[58] = tested on: HCT-116 colon
[59] = tested on: HS 578T breast

With `[NH-]c1ncnc2c1N=C[N+]2=CC=CCO` the TGI [1] was over 100 µM.
`NS(=O)(=O)c1ccc(N=Nc2c(O)[nH]c3ccc(Cl)cc23)cc1` showed a GI50 [2] of over 22 µM, a TGI [2] of over 25 µM and a GI50 [3] of over 22.4 µM. The TGI [3] was over 25 µM, the GI50 [4] was over 15.2 µM and the TGI [4] was over 25 µM. For the same compound, the GI50 [5] was 9.95 µM, the TGI [5] was over 25 µM and the GI50 [6] was 6.64 µM. The TGI [6] was over 25 µM, the GI50 [7] was 24.5 µM and the TGI [7] was over 25 µM. For the same compound, the GI50 [8] was 5.29 µM, the TGI [8] was over 21.9 µM and the GI50 [9] was 11.3 µM. For the same compound, the TGI [9] was over 25 µM, the GI50 [10] was 12.9 µM and the TGI [10] was over 25 µM. It also gave a GI50 [11] of 13.4 µM, a TGI [11] of over 25 µM and a GI50 [12] of over 25 µM. It also gave a TGI [12] of over 25 µM, a GI50 [13] of over 18.9 µM and a TGI [13] of over 25 µM. The GI50 [14] was over 25 µM, the TGI [14] was over 25 µM and the GI50 [15] was 18.3 µM. It also gave a TGI [15] of over 25 µM, a GI50 [16] of 8.42 µM and a TGI [16] of over 20.3 µM. The GI50 [17] was 14 µM, the TGI [17] was over 25 µM and the GI50 [18] was 6.46 µM. The TGI [18] was over 20.6 µM, the GI50 [19] was over 25 µM and the TGI [19] was over 25 µM. The GI50 [20] was over 18.3 µM, the TGI [20] was over 25 µM and the GI50 [21] was 17.2 µM. For the same compound, the TGI [21] was over 25 µM, the GI50 [22] was over 25 µM and the TGI [22] was over 25 µM. It also gave a GI50 [23] of over 25 µM, a TGI [23] of over 25 µM and a GI50 [24] of 6.73 µM. For the same compound, the TGI [24] was 14.5 µM, the GI50 [25] was 8.62 µM and the TGI [25] was over 25 µM. For the same compound, the GI50 [26] was over 25 µM, the TGI [26] was over 25 µM and the GI50 [27] was over 25 µM. The TGI [27] was over 25 µM, the GI50 [28] was 16.1 µM and the TGI [28] was over 25 µM. For the same compound, the GI50 [29] was over 25 µM, the TGI [29] was over 25 µM and the GI50 [30] was over 21.9 µM. For the same compound, the TGI [30] was over 25 µM, the GI50 [31] was over 25 µM and the TGI [31] was over 25 µM. For the same compound, the GI50 [32] was 8.66 µM, the TGI [32] was 24.9 µM and the GI50 [33] was 13.6 µM. For the same compound, the TGI [33] was over 25 µM, the GI50 [34] was over 19.6 µM and the TGI [34] was over 25 µM. For the same compound, the GI50 [35] was over 17.9 µM, the TGI [35] was over 25 µM and the GI50 [36] was over 16.9 µM. It also gave a TGI [36] of over 25 µM, a GI50 [37] of over 25 µM and a TGI [37] of over 25 µM. It also gave a GI50 [38] of 9.96 µM, a TGI [38] of over 25 µM and a GI50 [39] of 5.78 µM. For the same compound, the TGI [39] was over 23 µM, the GI50 [40] was 8.86 µM and the TGI [40] was over 25 µM. It also gave a GI50 [41] of 4.87 µM, a TGI [41] of 14.2 µM and a GI50 [42] of over 25 µM. For the same compound, the TGI [42] was over 25 µM, the GI50 [43] was over 7.22 µM and the TGI [43] was over 25 µM. It also gave a GI50 [44] of 17.6 µM, a TGI [44] of over 25 µM and a GI50 [45] of 12.2 µM. For the same compound, the TGI [45] was over 25 µM, the GI50 [46] was over 9.61 µM and the TGI [46] was over 25 µM. For the same compound, the GI50 [47] was 6.13 µM, the TGI [47] was over 25 µM and the GI50 [48] was over 25 µM. For the same compound, the TGI [48] was over 25 µM, the GI50 [49] was 12.9 µM and the TGI [49] was over 25 µM. For the same compound, the GI50 [50] was over 22.1 µM, the TGI [50] was over 25 µM and the GI50 [51] was 15.5 µM. The TGI [51] was over 25 µM, the GI50 [52] was over 25 µM and the TGI [52] was over 25 µM. For the same compound, the GI50 [53] was 20.7 µM, the TGI [53] was over 25 µM and the GI50 [54] was 5.38 µM. For the same compound, the TGI [54] was over 25 µM, the GI50 [55] was 7.58 µM and the TGI [55] was over 25 µM. It also gave a GI50 [56] of over 25 µM, a TGI [56] of over 25 µM and a GI50 [57] of over 25 µM. For the same compound, the TGI [57] was over 25 µM, the GI50 [58] was 7.04 µM and the TGI [58] was over 16.9 µM. It also gave a GI50 [59] of 11.6 µM and a TGI [59] of over 25 µM.
`CC(C)(C(=O)NCC(F)(F)C(F)(F)F)C(=O)N[C@@H]1C(=O)Nc2ccccc2-c2ccccc21` showed a GI50 [2] of 50.3 µM, a TGI [2] of over 100 µM and a GI50 [3] of over 70.2 µM. It also gave a TGI [3] of over 100 µM, a GI50 [4] of 29.2 µM and a TGI [4] of over 100 µM. For the same compound, the GI50 [5] was 50.4 µM, the TGI [5] was over 100 µM and the GI50 [6] was over 78.5 µM. The TGI [6] was over 100 µM, the GI50 [7] was 42.4 µM and the TGI [7] was over 100 µM. For the same compound, the GI50 [8] was over 84.8 µM, the TGI [8] was over 100 µM and the GI50 [9] was 51.9 µM. It also gave a TGI [9] of over 100 µM, a GI50 [10] of 55.6 µM and a TGI [10] of over 100 µM. It also gave a GI50 [11] of over 93.4 µM, a TGI [11] of over 100 µM and a GI50 [12] of 50.8 µM. For the same compound, the TGI [12] was over 100 µM, the GI50 [13] was 39.7 µM and the TGI [13] was over 100 µM. The GI50 [14] was 47.3 µM, the TGI [14] was over 100 µM and the GI50 [15] was 40.6 µM. For the same compound, the TGI [15] was over 100 µM, the GI50 [16] was over 64.3 µM and the TGI [16] was over 100 µM. For the same compound, the GI50 [17] was over 67 µM, the TGI [17] was over 100 µM and the GI50 [18] was 32.3 µM. It also gave a TGI [18] of over 100 µM, a GI50 [19] of 37.5 µM and a TGI [19] of over 100 µM. For the same compound, the GI50 [20] was over 57.2 µM, the TGI [20] was over 100 µM and the GI50 [21] was over 85 µM. The TGI [21] was over 100 µM, the GI50 [22] was 42 µM and the TGI [22] was over 100 µM. The GI50 [23] was 54.5 µM, the TGI [23] was over 100 µM and the GI50 [24] was 99 µM. For the same compound, the TGI [24] was over 100 µM, the GI50 [25] was 52.4 µM and the TGI [25] was over 100 µM. It also gave a GI50 [26] of 40.3 µM, a TGI [26] of over 100 µM and a GI50 [27] of 62.3 µM. The TGI [27] was over 100 µM, the GI50 [28] was 16 µM and the TGI [28] was 37.5 µM. For the same compound, the GI50 [29] was over 67.3 µM, the TGI [29] was over 100 µM and the GI50 [30] was 34.1 µM. The TGI [30] was over 100 µM, the GI50 [31] was 97 µM and the TGI [31] was over 100 µM. The GI50 [32] was 21.6 µM, the TGI [32] was over 100 µM and the GI50 [33] was 30.1 µM. The TGI [33] was over 100 µM, the GI50 [34] was over 71.6 µM and the TGI [34] was over 100 µM. It also gave a GI50 [35] of 45.4 µM, a TGI [35] of over 100 µM and a GI50 [36] of 36.3 µM. For the same compound, the TGI [36] was over 100 µM, the GI50 [37] was 38.8 µM and the TGI [37] was over 100 µM. The GI50 [38] was over 59.2 µM, the TGI [38] was over 100 µM and the GI50 [39] was over 100 µM. The TGI [39] was over 100 µM, the GI50 [40] was 44 µM and the TGI [40] was over 100 µM. The GI50 [41] was 68.8 µM, the TGI [41] was over 100 µM and the GI50 [42] was 34 µM. The TGI [42] was over 100 µM, the GI50 [43] was 45.3 µM and the TGI [43] was over 100 µM. For the same compound, the GI50 [44] was 67.5 µM, the TGI [44] was over 100 µM and the GI50 [45] was 27.3 µM. The TGI [45] was over 100 µM, the GI50 [46] was 39.2 µM and the TGI [46] was over 100 µM. It also gave a GI50 [47] of 35.5 µM, a TGI [47] of 99 µM and a GI50 [48] of 23.7 µM. For the same compound, the TGI [48] was 99 µM, the GI50 [49] was 20 µM and the TGI [49] was over 78.7 µM. It also gave a GI50 [50] of 51.3 µM, a TGI [50] of over 100 µM and a GI50 [51] of over 87.2 µM. It also gave a TGI [51] of over 100 µM, a GI50 [52] of 52.7 µM and a TGI [52] of over 100 µM. It also gave a GI50 [53] of over 61.9 µM, a TGI [53] of over 100 µM and a GI50 [54] of 65.1 µM. It also gave a TGI [54] of over 100 µM, a GI50 [55] of 73.3 µM and a TGI [55] of over 100 µM. It also gave a GI50 [56] of over 63.7 µM, a TGI [56] of over 100 µM and a GI50 [57] of 43.7 µM. The TGI [57] was over 100 µM, the GI50 [58] was 46.1 µM and the TGI [58] was over 100 µM. It also gave a GI50 [59] of over 56 µM and a TGI [59] of over 100 µM.

Source: PubChem BioAssay (NCI)
